We go through 3 molecules from patent publication EP1961762A1, “Inhibitors of protein phosphatase 1/GADD34, preparation and uses thereof” (Institut Gustave Roussy, priority 2007, dated 2008).

Series [1] concerns CRT. Put plainly: Biotinylated surface proteins, 2D electrophoresis and mass spectroscopy. To be noted: short-term (4 h) treatment.
The subject of series [2] is CT26 cells. Briefly: Phagocytosis of tumour cells by dendritic cells. To be noted: within a few hours after treatment. In kind it is cell-based, BALB/c mice. The method, then:
BM cells were flushed from the tibias and femurs of BALB/c mice with culture medium composed of RPMI 1640 medium (Invitrogen Life Technologies) supplemented with 10% heat-inactivated FBS (Invitrogen), sodium pyruvate, 50 µM 2-ME (Sigma), 10 mM HEPES (pH 7.4), and penicillin/streptomycin (Invitrogen). After one centrifugation, BM cells were resuspended in Tris-ammonium chloride for 2 min to lyse RBC. After one more centrifugation, BM cells (1 x 10^6 cells/ml) were cultured in medium supplemented with 100 ng/ml recombinant mouse FLT3 ligand (R&D systems) in 6-well plates (Costar Corning). After 7 days, the non-adherent and loosely adherent cells were harvested with Versene, washed and transferred in 12-well plates (1.5 x 10^6 cells/plate) for cocultures with tumour cells.
In 12-well plates, 25 x 10^6 adherent CT26 cells were labelled with Celltracker Green (Calbiochem) and then incubated with drugs. In some experiments viable CT26 were coated with 2µg/10^6 cells of chicken anti-CRT antibody (ABR affinity bioreagents) or an isotype control for 30 min prior to washing and feeding to dendritic cells Cs. Alternatively CT26 cells were coated with 2µg/10^6 cells of rCRT on ice for 30 min and washed twice prior to addition to dendritic cells. […] Phagocytosis was assessed by FACS analysis of double positive cells. […]

Series [3] has as its system ERP57. Briefly: Biotinylated surface proteins, 2D electrophoresis and mass spectroscopy. To be noted: short-term (4 h) treatment.
Series [4] has as its system CT26 tumour cells. Put plainly: Anti-tumour vaccination with dying treated CT26 tumour cells, challenge with live tumour cells. In kind it is in vivo, BALB/c mice. The following applies: for immunogenic apoptosis / immunogenic cell death (protection against tumour growth): dying CT26 cells treated with the agent injected into one flank, live tumour cells into the opposite flank 8 days later.

Series [5] relates to CRT and/or ERp57. Briefly: Immunofluorescence staining of unfixed human tumour cell lines. In kind it is cell-based. The following applies: variety of human tumour cell lines.
Series [6] concerns CT26 tumours. Put plainly: Intratumoural treatment of established CT26 tumours, nu/nu mice.
Description: (§2) All animals were maintained in specific pathogen-free conditions and all experiments followed the FELASA guidelines. […] Tumours were evaluated weekly, using a caliper. In a series of experiments, BALB/c (wild type or nu/nu) carrying palpable CT26 tumours (implanted 14 days before for wild type or 7 days before for nu/nu mice by injection of 10^6 tumour cells) received a single intratumoural injection of 100 µM PBS containing the same concentration of anti-cancer agents and PP1/GADD34 inhibitors as those used in vitro, as well as rCRT (15 µg).
Series [7] concerns HeLa, A549, HCT116. Put plainly: CRT exposure on human tumour cell lines. In kind it is cell-based.
Series [8] deals with CRT, KDEL receptor and ERp57. Briefly: Double immunofluorescence staining of CRT, KDEL receptor and ERp57. In kind it is cell-based. The following applies: HeLa cells, 1 µM, 2h.
The subject of series [9] is MCA205, B16F10, J558. Put plainly: CRT exposure on murine tumour cell lines. In kind it is cell-based.
The test system of series [10] is CRT. Put plainly: Fluorescence detection of cell surface CRT on CT26 cells. The class given is cell-based, murine. How it is done:
CT26 cells were cultured at 37°C under 5% CO2 in RPMI 1640 medium supplemented with 10% FCS, penicillin, streptomycin, 1 mM pyruvate and 10 mM HEPES in the presence of doxorubicin (DX; 24 h, 25 µM), mitoxantrone (Mitox; 24h, 1 µM, Sigma), idarubicin (24h, 1 µM, Aventis, France), mitomycin C (30 µM, 48 h; Sanofi-Synthelabo, France), and/or zVAD-fmk (50 µM, 24 h; Bachem), tunicamycin (24h, 65 µM), thapsigargin (24h, 30µM), brefeldin A (24h, 50 µM, Sigma), etoposide (48h, 25µM, Tava classics), MG132 (48h, 10 µM), ALLN (48h, […]), betulinic acid (24h, 10 µM), Hoechst 33343 (24h, 0,2µM), camptothecine (24h, 15 µM), lactacystin (48h, 60 µM), BAY 11-8072 (24h, 30µM), staurosporine (24h, 1.5 µM), bafilomycin A1 (48h, 300 nM), arsenic trioxide (24h, 30µM), C2-ceramide (C2-C; 24h, 60 µM,), calyculin A (48h, 30nM), or tautomycin (48h, nM, Sigma) and/or salubrinal (48h, µM, Calbiochem).
(§1) CT26 cells (on a glass slide or in 12-well plates) were first washed with FACS buffer (1× PBS, 5% fetus bovine serum, and 0.1% sodium azide) and then incubated with rabbit anti-mouse CRT antibody (1:100, Stressgen) in FACS buffer at 4 °C for 30 min. Cells reacted with anti-rabbit IgG (H+L) Alexa fluor 488-conjugates (1:500) in FACS buffer at 4 °C for 30 min. After washing three times with FACS buffer, surface CRT was detected by cytofluorometric analysis on a FACS Vantage. In some experiments, cells were fixed with 4% paraformaldehyde, counterstained with Hoechst (2µM; Sigma), followed by fluorescence microscopic assessment with a Leica IRE2 microscope equipped with a DC300F camera.

Series [11] deals with CRT. Briefly: Cell surface CRT on enucleated CT26 cells (cytoplasts). In kind it is cell-based, murine. The method, then: as §1
Trypsinized CT26 cells were enucleated as described in the publication of Andreau, K. et al. Contagious apoptosis facilitated by the HIV-1 envelope. Fusion-induced cell-to-cell transmission of a lethal signal. J. Cell Sci. 117, 5643-53 (2004). Briefly, cells were treated in 2 ml of complete RPMI medium containing cytochalasin B (10µg/ml; Sigma) and DNase I (80U/ml; Sigma). […] Then the cell surface CRT was detected (see materials and methods) and the viability was determined by with propidium iodine staining (2µg/ml, Sigma) for 5 min followed by cytofluorometric analysis. […] Phagocytosis was assessed by FACS analysis of double positive cells.

Series [12] deals with CT26 tumours. Put plainly: Intratumoural treatment of established CT26 tumours, immunocompetent mice.
Description: as §2
For series [13], the system named is ERp57. Briefly: Flow cytometric detection of surface ERp57. The class given is cell-based. (In flow cytometry, cells or beads pass a laser one at a time.)

“Also recorded” adds a separate entry of the source.

Consider `COc1cccc2c1C(=O)c1c(O)c3c(c(O)c1C2=O)C[C@@](O)(C(=O)CO)C[C@@H]3O[C@H]1C[C@H](N)[C@H](O)[C@H](C)O1` [doxorubicin], for which the “induction of surface CRT (factor)” value is 6 in [1] (doxorubicin alone) and 1.8 in series [1] (doxorubicin combined with Z-VAD-fmk). In series [2], the “phagocytosis of treated tumour cells by DC” value is reported as “acquired the property to be phagocytosed by DC quickly”. Moreover, the “surface exposure of ERP57” value in [3] is listed as “specifically induced”. Also, in series [4], the “immunogenic apoptosis / immunogenic cell death (protection against tumour growth)” value is “elicited immunogenic cell death”. Further, the “exposure of CRT and/or ERp57 on the cell surface” value in [5] is “Very similar results”.
Take `O=C1c2c(O)ccc(O)c2C(=O)c2c(NCCNCCO)ccc(NCCNCCO)c21` [mitoxantrone]: the “phagocytosis of treated tumour cells by DC” value in [2] is on record as “acquired the property to be phagocytosed by DC quickly”. For the same molecule, the “therapeutic effect of single agent” value is “no cure” in series [6] (single intratumoural injection) and “permanent regression in some but not all cases” in series [12] (single intratumoural injection, 14-day-old tumours). The CRT exposure result in series [7] and in series [9] was “induced CRT exposure” in each case. In addition, the “surface appearance of CRT, KDEL receptor and ERp57” value in series [8] is given as “appear together on the surface”. Also, the “immunogenic apoptosis / immunogenic cell death (protection against tumour growth)” value in [4] was “elicited immunogenic cell death”. Also, in series [10] (siRNA knock-down, then mitoxantrone 2 h), the “CRT exposure triggered by PP1 or GADD34 depletion” value is “not further enhanced”. In [11], the “time to CRT exposure in enucleated cells (cytoplasts)” value is not above 1 h.
For the molecule `CO[C@H]([C@H](O)CC(=O)[C@@H](C)[C@@H](O)CC[C@@H](C)[C@@H]1O[C@]2(CC[C@@H](C)[C@H](CC[C@H](C)C(C)=O)O2)CC[C@@H]1C)[C@H](OC(=O)C[C@@H](O)C1=C(C)C(=O)OC1=O)C(C)C` [tautomycin], the “therapeutic effect of single agent” value in series [6] (mouse, in vivo) is given as “no major therapeutic effect”. In addition, in [4] (mouse, in vivo), the immunogenic cell death result is on record as “not sufficient to induce immunogenic cell death” and the “immunogenic potential of cells succumbing to etoposide” value was “greatly enhanced”. Also, in [10], the CRT exposure entry is on record as “efficiently induced; also recorded: greatly enhanced”. In series [13], the “surface exposure of ERp57” value is “stimulates the surface exposure or ERp57”. In series [12] (mouse, in vivo), the “therapeutic effect of single agent” value is on record as “no major therapeutic effect” and the tumour response entry is given as “stable disease or complete tumour regression”.
